Assay results reported in patent publication US8217071B2, “Use of inhibitors of the degradation of p27, in particular Argyrin and derivatives thereof, for the treatment of proliferative diseases” (Helmholtz Zentrum für Infektionsforschung GmbH, priority 2007, dated 2012).
Numbered stars: 1 amine (or outer) side, 2 acyl side, 3 side chain; on linkers, the order of the positions; unused ones are H or OH. Square brackets hold non-standard residues; d marks the D form. Peptide text beside a SMILES is read from it. dAla(ψthiazole) = C[C@@H](N[*:1])c1nc(C(=O)[*:2])cs1; Trp(4-OMe) = COc1cccc2[nH]cc(C[C@H](N)C(=O)O)c12; Dha = C=C(N)C(=O)O; Sar = CNCC(=O)O

Key:
[1] = system: CD31 positive endothelial cells in tumour tissues (SW480 or HCT116); experiment: Microvessel density (CD31) in tumour tissue after single injection; type: in vivo, mouse
Description: This phenotype is often observed with drugs which interfere with blood vessel formation or compounds which directly damage existing tumour vessels. […] This reduction in tumour vasculature was paralleled by an induction of p27^kip1 expression in the CD31 positive endothelial cells. (FIG. 7A). To understand this phenotype in more detail the inventors analyzed primary tumour material by electronic microscopy. As early as 90 minutes after injection the inventors observed swelling of endothelial cell which was followed by a loss of basal membrane attachment and cell-cell contacts (FIG. 4D) in the tumour vasculature. As a result of the apparent loss of cell and basal membrane attachment after Argyrin A treatment many of the examined tumour blood vessels were occluded with endothelial cells or erythrocytes. The destruction of the tumour core which the inventors observed after Argyrin A treatment might therefore be a result of thrombotic occlusion of the affected blood vessels. In contrast the bortezomib induced reduction in CD31 positive cells correlated with the appearance of necrotic endothelial cells (FIG. 4D).
Treatment with Argyrin A or bortezomib was started when these tumours reached a volume of 200 mm3. […] (n=8 Argyrin A, n=8 Bortezomib, n=6 PBS/EtOH) b) The pictures show the macroscopic appearance of a xenotransplant tumour after 10 days of treatment with Argyrin A. Note the large necrotic centre of the explanted tumour. c) After a single injection of Argyrin A (0.15 mg/kg bodyweight) or bortezomib (1.0 mg/kg bodyweight) tumours were explanted at the indicated time points and blood vessels in the tumour tissue were co-stained for CD31 and p27. […] Note the swelling of the endothelial cell (“E”) and the occlusion of the lumen (“L”) by erythrocytes after 90 minutes of Argyrin A treatment. The arrow marks the detachment of endothelial cells after 48 h of Argyrin A treatment. […] Tube length (f) and blood vessel like […] structures were determined using photographs of HUVEC cultures. The micrographs show representative examples of HUVEC cultures under the indicated conditions.
Immunohistochemical staining of mouse tumour tissue, western Blotting and immunofluorescence experiments were done as previously described (Timmerbeul, I. et al. Testing the importance of p27 degradation by the SCFskp2 pathway in murine models of lung and colon cancer. Proc Natl Acad Sci USA 103, 14009-14 (2006). Kossatz, U. et al. C-terminal phosphorylation controls the stability and function of p27^kip1. Embo J 25, 5159-70 (2006).). […]

[2] = system: SW480 colon carcinoma xenotransplant tumours; experiment: SW480 xenotransplant tumours in nu/nu mice; type: in vivo, mouse; conditions: for proteasome activity in the primary tumour tissue: single dose
Description: At the indicated timepoints 20S proteasome was isolated from peripheral blood cells and the activity of the different proteasome subunits was determined as described (FIG. 1d). b) SW480 colon carcinoma cell lines mixed with matrigel were injected under the skin of nu/nu mice to establish xenotransplant tumours. Treatment with Argyrin A or bortezomib was started when these tumours reached a volume of 200 mm^3. […] The activity of the respective proteasome subunits was determined as described previously (FIG. 1d). e) Determination of the number of p27^kip1 positive cells in tumour tissue after Argyrin A treatment. The pictures show representative samples of immunohistochemical stainings for p27 in tumour tissues after 10 days of Argyrin A treatment. f) Detection of apoptotic cells in xenotransplanted tumours by TUNEL staining of tumour tissues after treatment with Argyrin A or bortezomib. At least 200 cells were counted on five independent sections to quantitate the number of apoptotic cells.
MTT assays were done as previously described (Sasse, F. et al. Argyrins, immunosuppressive cyclic peptides from myxobacteria. I. Production, isolation, physico-chemical and biological properties. J Antibiot (Tokyo) 55, 543-51 (2002)). TUNEL staining of tissue sections was performed on 10 micrometer sections which were deparafinised and treated as recommended by the manufacturer. (In Situ Cell Death Detection Kit, Fluorescein; ROCHE, Cat #11 684 795 910). Flow cytometric analysis of cultured cells was done using a Becton Dickinson fluorescence cytometer as previously described (Malek, N. P. et al. A mouse knock-in model exposes sequential proteolytic pathways that regulate p27^Kip1 in G1 and S phase. Nature 413, 323-7 (2001)). Analysis of the distribution of cells in the cell cycle and the sub-G1 fraction was done using Cell Quest software. A histone-associated-DNA-fragments ELISA was used to determine the number of apoptotic cells according to manufacturers instructions (Roche #11 774425001).
Proteasome assays using proteasome purified from cells or tissues were carried out in a 100 μL reaction volume containing 20 μg proteasome extract, 50 mmol/L EDTA and 60 μmol/L fluorogenic substrate (chymotrypsin-like (CT-L), trypsin-like (T-L) or caspase-like (C-L)) in ATP/DTT lysis buffer at 37° C. The assay buffer was supplemented with a final concentration of 0.05% SDS for the evaluation of the chymotrypsin-like activity and caspase-like activity. The rate of cleavage of fluorogenic peptide substrates was determined by monitoring the fluorescence of released amonomethylcoumarin using a Victor 1420 Multilabel counter (Wallac) at an excitation wavelength of 395 nm and emission wavelength of 460 nm over a period of 60 min.
1×10^7 SW480 cells or HCT116 cells (in 100 microliters DMEM medium and 100 microliters matrigel) were s.c. injected into the flanks of NMRI nu/nu mice. Tumours grew for approx. 18 days until they reached appropriate size (200 mm3). Tumour size was measured with a digital calliper and calculated with the help of the following formula: (Length×width2)*π/6. All experiments were done after review and in accordance with the animal rights and protection agencies of Lower Saxony, Germany.

SMILES | number of CD31 positive endothelial cells ([1]; single injection) | proteasome activity in the primary tumour tissue [2] | CD31 positive cells remaining ([1]; 72 hours after injection) | start of reduction of CD31 positive endothelial cells after injection ([1]; single injection) | size of the xenotransplanted tumours ([2]; SW480, 0.15 mg/kg i.p. every three days) | apoptotic cell death, share of all tumor cells ([2]; SW480 xenograft, TUNEL staining) | p27^kip1 in tumour tissue ([2]; SW480 xenograft, immunohistochemistry)
CC(C)C[C@H](NC(=O)[C@H](Cc1ccccc1)NC(=O)c1cnccn1)B(O)O [bortezomib, reference compound] | reduction | significant reduction | – | – | – | – | –
C=C1NC(=O)[C@@H](C)NC(=O)CNC(=O)[C@H](Cc2c[nH]c3cccc(OC)c23)NC(=O)[C@H](Cc2c[nH]c3ccccc23)NC(=O)c2csc(n2)[C@@H](C)NC(=O)CN(C)C1=O [Argyrin A] (cyclo(W[Trp(4-OMe)]G[dA][Dha][Sar][dAla(ψthiazole)])) | significant reduction | significant reduction | about 10% | ≥ 90 min | significant reduction | > 60% | induction
